Results as given in US20220142169A1, “INHIBITING INSECTICIDE RESISTANCE AND MAKING SUSCEPTIBLE INSECTS HYPER-SUSCEPTIBLE TO PESTICIDES” (priority 2019, published 2022).

Columns and labels:
[1] = system: GSK3β-PO; conditions: listed beside gene GSK3β-PO; cited from earlier work
[2] = system: Drosophila melanogaster DDT-susceptible 91-C strain; test: DDT mortality bioassay (glass vial, 24 h) after two days of inhibitor feeding; assay type: in vivo; conditions: for LD50: 24 h; for reduction of level of DDT resistance: optimal rearing condition; for decrease of DDT resistance: sub-optimal rearing condition
Description: (§1) Flies of 1-2 day old (females and males) were introduced into a plastic vial (28 mm×95 mm height) and fed with inhibitors mixed in 5% sucrose solution. […] After fed with inhibitor solutions for two days, 20 females or males from either the 91-R or 91-C strains were used in all DDT bioassays. To explore the effect of inhibitors, fruit flies under two different rearing conditions: optimal rearing condition and sub-optimal rearing condition were used in our study. Under optimal rearing condition, 100 pairs of flies were maintained in bottles (containing 50 ml standard medium) and allowed for laying eggs for four days. All adults were then removed to make sure the suitable density of larva. Differently, adults were not removed until emerging of next generation under sub-optimal rearing condition. Simply, optimal rearing condition provided enough food for flies, but sub-optimal rearing condition faced certain food pressure.
(§2) Briefly, various concentrations of DDT dissolved in acetone were transferred into 20 ml transparent glass vials and each rolled on its side in a fume hood till the acetone evaporated. […] Vials were capped with cotton plugs moistened with a 5% sucrose solution in distilled water. The number of dead flies were recorded after 24 hours.
(§3) For RT-qPCR, statistical analysis was performed using Student's t-test to compare the results between 91-C and 91-R. For glycogen assay and body weight, One-way ANOVA was used, and means comparisons were made by using Student's t test (p<0.05) by using SPSS software (Version 19.0; SPSS Inc., USA). The median lifespan under fed or starvation conditions were calculated using the Probit function in SPSS (Version 19.0; SPSS Inc, USA). For mortality bioassay, Probit analysis was conducted by using SPSS software (Version 19.0; SPSS Inc, USA).

[3] = system: Drosophila melanogaster DDT-resistant 91-R strain; test: as above; assay type: in vivo; conditions: for LD50: 24 h; for ratio of LD50 optimal / sub-optimal rearing conditions / Resistance Ratio: DDT; for ratio of LD50 optimal / sub-optimal rearing conditions: no inhibitor; for reduction of level of DDT resistance: optimal rearing condition; for decrease of DDT resistance: sub-optimal rearing condition
Description: as §1, §2, §3

[4] = system: Drosophila Canton-S strain; test: Cypermethrin mortality bioassay (glass vial, 24 h) after inhibitor feeding; assay type: in vivo, Drosophila melanogaster; conditions: for LD50: 24 h
Description: (§4) Adult flies were placed in bottles with instant drosophila blue diet (Formula 2-24®, carolina.com) made with inhibitor solutions for two days.
(§5) 200 μl of each concentration of solution as well as 200 μl acetone were transferred into 20 ml transparent glass vials and rolled on its side in a fume hood till the acetone completely evaporated. 20 flies of 91C, 91R and Canton-S stains were placed into vials for either female or male. Vials were capped with cotton plugs moistened with a 5% sucrose solution in distilled water. The number of dead flies were recorded after 24 hours. […] For each strain by sex combination, 8 concentrations of dosage were used including 0 control. A total of 8×3×20 flies were used for each of strain by sex combinations. For mortality bioassay, Probit analysis tool in SAS was used (SAS 9.4, SAS Ins, USA).

[5] = system: Drosophila 91-C strain; test: as above; assay type: in vivo, Drosophila melanogaster; conditions: for LD50: 24 h
Description: as §4, §5

[6] = system: Drosophila 91-R strain; test: as above; assay type: in vivo, Drosophila melanogaster; conditions: for LD50: 24 h
Description: as §4, §5

[7] = DDT LD50, 91-C♀, optimal dietary rearing, Hys 10 mM, LiCl 20 mM fed 2 days
[8] = DDT LD50, 91-C♂ (so in the source), sub-optimal dietary rearing
[9] = DDT LD50, 91-C♂, optimal dietary rearing
[10] = DDT LD50, 91-R♀, optimal dietary rearing
[11] = DDT LD50, 91-R♀, sub-optimal dietary rearing
[12] = DDT LD50, 91-R♂, optimal dietary rearing
[13] = DDT LD50, 91-R♂, sub-optimal dietary rearing

NC1=NC(=O)/C(=C2\CCNC(=O)c3[nH]c(Br)cc32)N1 [Hymenialdesine]
IC50 [1]: 0.01 µM

Clc1ccc(C(c2ccc(Cl)cc2)C(Cl)(Cl)Cl)cc1 [DDT]
LD50 [2, 7]: 51.59 μg/vial | LD50 [2, 8]: 6.77 μg/vial | LD50 [2, 9]: 19.81 μg/vial | ratio of LD50 optimal / sub-optimal rearing condition ([2]; DDT, 91-C females, no inhibitor): 7.62 | LD50 [3, 10]: 136883.00 μg/vial | LD50 [3, 11]: 523.34 μg/vial | LD50 [3, 12]: 66073.00 μg/vial | LD50 [3, 13]: 143.70 μg/vial | ratio of LD50 optimal / sub-optimal rearing conditions ([3]; 91-R females): 261.56 | ratio of LD50 optimal / sub-optimal rearing conditions ([3]; 91-R males): 459.80

NN.O=S(=O)(O)O [Hys, hydrazine sulphate]
Synergism Ratio ([4]; Canton-S ♀): 3.58 | Synergism Ratio ([4]; Canton-S ♂): 3.78 | Synergism Ratio ([5]; 91-C♀): 4.39 | Synergism Ratio ([5]; 91-C♂): 5.73 | Synergism Ratio ([6]; 91-R♀): 3.87 | Synergism Ratio ([6]; 91-R♂): 3.88

[Cl-].[Li+] [LiCl, lithium chloride]
Synergism Ratio ([4]; Canton-S ♀): 0.74 | LD50 ([4]; Canton-S ♀, Hys 10 mM, LiCl 20 mM in diet 2 days): 0.78 μg/vial | Synergism Ratio ([4]; Canton-S ♂): 0.60 | LD50 ([4]; Canton-S ♂): 0.9 μg/vial | Synergism Ratio ([5]; 91-C♀): 4.93 | LD50 ([5]; 91-C♀): 0.13 μg/vial | Synergism Ratio ([5]; 91-C♂): 11.92 | LD50 ([5]; 91-C♂): 0.03 μg/vial | Synergism Ratio ([6]; 91-R♀): 4.58 | LD50 ([6]; 91-R♀): 0.17 μg/vial | Synergism Ratio ([6]; 91-R♂): 3.36 | LD50 ([6]; 91-R♂): 0.08 μg/vial | IC50 [1]: 2000 µM | reduction of level of DDT resistance ([2]; 91-C females): 4.2 fold | decrease of DDT resistance ([2]; 91-C females): 2.3 fold | reduction of level of DDT resistance ([2]; 91-C males): 2.7 fold | decrease of DDT resistance ([2]; 91-C males): 2.3 fold | LD50 ([2]; DDT LD50, 91-C♀ (so in the source), sub-optimal dietary rearing): 0.94 μg/vial | LD50 [2, 7]: 12.17 μg/vial | LD50 [2, 8]: 2.96 μg/vial | LD50 [2, 9]: 7.22 μg/vial | Resistance Ratio ([2]; DDT, 91-C♀ (so in the source), sub-optimal rearing): 2.26 | Resistance Ratio ([2]; DDT, 91-C♂ (so in the source), sub-optimal rearing): 2.29 | Resistance Ratio ([2]; DDT, 91-C♂, optimal rearing): 2.74 | Resistance Ratio ([2]; control LD50 vs inhibitor-fed, DDT, 91-C♀, optimal rearing): 4.24 | reduction of level of DDT resistance ([3]; 91-R females): 1.6 fold | decrease of DDT resistance ([3]; 91-R females): 3.3 fold | reduction of level of DDT resistance ([3]; 91-R males): 20.5 fold | decrease of DDT resistance ([3]; 91-R males): no significant decreased in resistance levels | resistance ratio reduction / decrease of DDT resistance ([3]; 91-R, both sexes, optimal rearing conditions): 1.6-20.5 fold | LD50 [3, 10]: 83375.00 μg/vial | LD50 [3, 11]: 157.63 μg/vial | LD50 [3, 12]: 3224.00 μg/vial | LD50 [3, 13]: 126.69 μg/vial | Resistance Ratio ([3]; 91-R♀, optimal rearing): 1.64 | Resistance Ratio ([3]; 91-R♀, sub-optimal rearing): 3.37 | Resistance Ratio ([3]; 91-R♂, optimal rearing): 20.49 | Resistance Ratio ([3]; 91-R♂, sub-optimal rearing): 1.13

NC1=N[C@H]2c3c([nH]c(Br)c3Br)C(=O)N3CCC[C@]23N1 [Dibromocantharelline]
IC50 [1]: 3 µM
